Activity calls are given as the source filed them.
Assays:
Type in all cases: functional
CCRF-CEM = test: Antiproliferative activity against human CCRF-CEM cells at 10 uM assessed as cell growth inhibition relative to control
HL-60(TB) = test: Antiproliferative activity against human HL-60(TB) cells at 10 uM assessed as cell growth inhibition relative to control
K562 = test: Antiproliferative activity against human K562 cells at 10 uM assessed as cell growth inhibition relative to control
MOLT-4 = test: Antiproliferative activity against human MOLT4 cells at 10 uM assessed as cell growth inhibition relative to control
RPMI8266 = test: Antiproliferative activity against human […] cells at 10 uM assessed as cell growth inhibition relative to control
A549 = test: Antiproliferative activity against human A549 cells at 10 uM assessed as cell growth inhibition relative to control
EKVX = test: Antiproliferative activity against human EKVX cells at 10 uM assessed as cell growth inhibition relative to control
PC-3 = test: Antiproliferative activity against human PC3 cells at 10 uM assessed as cell growth inhibition relative to control
HOP-62 = test: Antiproliferative activity against human HOP62 cells at 10 uM assessed as cell growth inhibition relative to control
HOP-92 = test: Antiproliferative activity against human HOP92 cells at 10 uM assessed as cell growth inhibition relative to control
NCI-H226 = test: Antiproliferative activity against human NCI-H226 cells at 10 uM assessed as cell growth inhibition relative to control
NCI-H23 = test: Antiproliferative activity against human NCI-H23 cells at 10 uM assessed as cell growth inhibition relative to control
NCI-H322M = test: Antiproliferative activity against human NCI-H322M cells at 10 uM assessed as cell growth inhibition relative to control
NCI-H460 = test: Antiproliferative activity against human NCI-H460 cells at 10 uM assessed as cell growth inhibition relative to control
NCI-H522 = test: Antiproliferative activity against human NCI-H522 cells at 10 uM assessed as cell growth inhibition relative to control
COLO 205 = test: Antiproliferative activity against human COLO205 cells at 10 uM assessed as cell growth inhibition relative to control
HCC 2998 = test: Antiproliferative activity against human HCC2998 cells at 10 uM assessed as cell growth inhibition relative to control
HCT-116 = test: Antiproliferative activity against human HCT116 cells at 10 uM assessed as cell growth inhibition relative to control
HCT-15 = test: Antiproliferative activity against human HCT15 cells at 10 uM assessed as cell growth inhibition relative to control
HT-29 = test: Antiproliferative activity against human HT-29 cells at 10 uM assessed as cell growth inhibition relative to control
KM12 = test: Antiproliferative activity against human KM12 cells at 10 uM assessed as cell growth inhibition relative to control
SW-620 = test: Antiproliferative activity against human SW620 cells at 10 uM assessed as cell growth inhibition relative to control
LOX IMVI = test: Antiproliferative activity against human LOXIMVI cells at 10 uM assessed as cell growth inhibition relative to control
Malme-3M = test: Antiproliferative activity against human MALME-3M cells at 10 uM assessed as cell growth inhibition relative to control
M14 = test: Antiproliferative activity against human M14 cells at 10 uM assessed as cell growth inhibition relative to control
SK-MEL-2 = test: Antiproliferative activity against human SK-MEL-2 cells at 10 uM assessed as cell growth inhibition relative to control
SK-MEL-28 = test: Antiproliferative activity against human SK-MEL-28 cells at 10 uM assessed as cell growth inhibition relative to control
SK-MEL-5 = test: Antiproliferative activity against human SK-MEL-5 cells at 10 uM assessed as cell growth inhibition relative to control
UACC-257 = test: Antiproliferative activity against human UACC257 cells at 10 uM assessed as cell growth inhibition relative to control
UACC-62 = test: Antiproliferative activity against human UACC62 cells at 10 uM assessed as cell growth inhibition relative to control
SF-268 = test: Antiproliferative activity against human SF268 cells at 10 uM assessed as cell growth inhibition relative to control
SF-295 = test: Antiproliferative activity against human SF295 cells at 10 uM assessed as cell growth inhibition relative to control
SF-539 = test: Antiproliferative activity against human SF539 cells at 10 uM assessed as cell growth inhibition relative to control
SNB-19 = test: Antiproliferative activity against human SNB19 cells at 10 uM assessed as cell growth inhibition relative to control
SNB-75 = test: Antiproliferative activity against human SNB75 cells at 10 uM assessed as cell growth inhibition relative to control
U-251 = test: Antiproliferative activity against human U251 cells at 10 uM assessed as cell growth inhibition relative to control
IGROV-1 = test: Antiproliferative activity against human IGROV1 cells at 10 uM assessed as cell growth inhibition relative to control
OVCAR-3 = test: Antiproliferative activity against human OVCAR-3 cells at 10 uM assessed as cell growth inhibition relative to control
OVCAR-4 = test: Antiproliferative activity against human OVCAR4 cells at 10 uM assessed as cell growth inhibition relative to control
OVCAR-5 = test: Antiproliferative activity against human OVCAR5 cells at 10 uM assessed as cell growth inhibition relative to control
OVCAR-8 = test: Antiproliferative activity against human OVCAR8 cells at 10 uM assessed as cell growth inhibition relative to control
SK-OV-3 = test: Antiproliferative activity against human SKOV3 cells at 10 uM assessed as cell growth inhibition relative to control
786-0 = test: Antiproliferative activity against human 786-0 cells at 10 uM assessed as cell growth inhibition relative to control
A498 = test: Antiproliferative activity against human A498 cells at 10 uM assessed as cell growth inhibition relative to control
ACHN = test: Antiproliferative activity against human ACHN cells at 10 uM assessed as cell growth inhibition relative to control
CAKI-1 = test: Antiproliferative activity against human Caki1 cells at 10 uM assessed as cell growth inhibition relative to control
RXF 393 = test: Antiproliferative activity against human RXF393 cells at 10 uM assessed as cell growth inhibition relative to control
SN12C = test: Antiproliferative activity against human SN12C cells at 10 uM assessed as cell growth inhibition relative to control
TK-10 = test: Antiproliferative activity against human TK10 cells at 10 uM assessed as cell growth inhibition relative to control
UO-31 = test: Antiproliferative activity against human UO31 cells at 10 uM assessed as cell growth inhibition relative to control
BT-549 = test: Antiproliferative activity against human BT549 cells at 10 uM assessed as cell growth inhibition relative to control
Hs-578T = test: Antiproliferative activity against human Hs 578T cells at 10 uM assessed as cell growth inhibition relative to control
MCF7 = test: Antiproliferative activity against human MCF7 cells at 10 uM assessed as cell growth inhibition relative to control
MDA-MB-231 = test: Antiproliferative activity against human MDA-MB-231 cells at 10 uM assessed as cell growth inhibition relative to control
MDA-MB-468 = test: Antiproliferative activity against human MDA-MB-468 cells at 10 uM assessed as cell growth inhibition relative to control
T47D = test: Antiproliferative activity against human T47D cells at 10 uM assessed as cell growth inhibition relative to control
DU-145 = test: Antiproliferative activity against human DU145 cells at 10 uM assessed as cell growth inhibition relative to control

Measured: growth inhibition (GI)

CNC(=O)NC[C@H]1O[C@@H](n2cnc3c(NC(=O)Nc4ccccc4)ncnc32)[C@@H]2OC(=O)C[C@@H]21
inactive: all assays above
